From ChEMBL document CHEMBL4308836, “Inhibitors of Mutant Isocitrate Dehydrogenases 1 and 2 (mIDH1/2): An Update and Perspective” (J Med Chem, 2018)
pIC50: −log10 of the molar value.

Legend:
[1] = target: T1, Isocitrate dehydrogenase [NADP] cytoplasmic (Homo sapiens, UniProt O75874, R132C); assay: Inhibition of IDH1 R132C mutant (unknown origin) by kinase-Glo luminescent assay
[2] = target: T2, Isocitrate dehydrogenase [NADP] cytoplasmic (Homo sapiens, UniProt O75874, R132H); assay: Inhibition of IDH1 R132H mutant (unknown origin) using alpha-KG as substrate after 90 mins
T2 sequence (O75874 2-414 R132H limits assumed): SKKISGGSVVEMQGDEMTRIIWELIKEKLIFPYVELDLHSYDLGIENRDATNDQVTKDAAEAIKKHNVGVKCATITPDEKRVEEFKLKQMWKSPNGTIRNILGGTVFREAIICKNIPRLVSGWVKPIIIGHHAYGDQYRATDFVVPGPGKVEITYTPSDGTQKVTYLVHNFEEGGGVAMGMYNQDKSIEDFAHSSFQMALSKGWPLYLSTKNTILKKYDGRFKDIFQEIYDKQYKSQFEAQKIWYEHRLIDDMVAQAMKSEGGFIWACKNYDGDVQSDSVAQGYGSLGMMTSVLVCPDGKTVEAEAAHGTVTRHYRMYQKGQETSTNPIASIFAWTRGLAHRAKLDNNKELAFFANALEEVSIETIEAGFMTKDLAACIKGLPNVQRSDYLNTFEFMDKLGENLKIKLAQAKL

[3] = target: T3, Isocitrate dehydrogenase [NADP], mitochondrial (Homo sapiens, UniProt P48735, R172K); assay: Inhibition of IDH2 R172K mutant (unknown origin) using alpha-KG as substrate after 90 mins in presence of NADPH by RF/MS analysis
T3 sequence (P48735 40-452 R172K limits assumed): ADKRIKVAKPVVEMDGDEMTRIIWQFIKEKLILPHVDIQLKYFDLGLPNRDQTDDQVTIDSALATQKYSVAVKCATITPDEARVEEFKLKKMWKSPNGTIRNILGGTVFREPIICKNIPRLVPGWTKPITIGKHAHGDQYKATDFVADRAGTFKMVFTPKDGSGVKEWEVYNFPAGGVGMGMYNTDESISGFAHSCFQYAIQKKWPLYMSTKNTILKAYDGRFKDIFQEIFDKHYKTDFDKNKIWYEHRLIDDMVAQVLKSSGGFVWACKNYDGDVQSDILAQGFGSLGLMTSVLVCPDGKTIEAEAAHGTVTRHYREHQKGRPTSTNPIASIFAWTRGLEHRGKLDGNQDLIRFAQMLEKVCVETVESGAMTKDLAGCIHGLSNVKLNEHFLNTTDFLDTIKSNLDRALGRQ

[4] = target: T1, Isocitrate dehydrogenase [NADP] cytoplasmic; assay: Inhibition of IDH1 R132C mutant (unknown origin) using alpha-KG as substrate after 60 mins by resazurin based assay
[5] = target: T1, Isocitrate dehydrogenase [NADP] cytoplasmic; assay: Inhibition of N-terminal His-tagged IDH1 R132C mutant (unknown origin) expressed in Escherichia coli using alpha-KG as substrate assessed as decrease in D-2-HG production after 90 mins by quadrupole mass spectrometry
[6] = target: T2, Isocitrate dehydrogenase [NADP] cytoplasmic; assay: Inhibition of N-terminal His-tagged IDH1 R132H mutant (unknown origin) expressed in Escherichia coli using alpha-KG as substrate assessed as decrease in D-2-HG production after 90 mins by quadrupole mass spectrometry
[7] = target: T1, Isocitrate dehydrogenase [NADP] cytoplasmic; assay: Inhibition of IDH1 R132C mutant (unknown origin) assessed as reduction in NADPH consumption using alpha-KG as substrate incubated for 45 mins by diaphorase and resazurin dye based assay
[8] = target: T2, Isocitrate dehydrogenase [NADP] cytoplasmic; assay: Inhibition of IDH1 R132H mutant (unknown origin) assessed as reduction in NADPH consumption using alpha-KG as substrate incubated for 45 mins by diaphorase and resazurin dye based assay
[9] = target: T1, Isocitrate dehydrogenase [NADP] cytoplasmic; assay: Inhibition of IDH1 R132C mutant (unknown origin) catalytic activity using alpha-KG as substrate assessed as decrease in D-2-HG production after 45 mins by LC-MS/MS analysis
[10] = target: T2, Isocitrate dehydrogenase [NADP] cytoplasmic; assay: Inhibition of IDH1 R132H mutant (unknown origin) catalytic activity using alpha-KG as substrate assessed as decrease in D-2-HG production after 45 mins by LC-MS/MS analysis
[11] = target: T2, Isocitrate dehydrogenase [NADP] cytoplasmic; assay: Inhibition of IDH1 R132H mutant (unknown origin) using alpha-KG after 105 mins by NADPH depletion assay
[12] = target: T1, Isocitrate dehydrogenase [NADP] cytoplasmic; assay: Inhibition of IDH1 R132C mutant (unknown origin) using alpha-KG after 105 mins by NADPH depletion assay
[13] = target: T3, Isocitrate dehydrogenase [NADP], mitochondrial; assay: Inhibition of IDH2 R172K mutant (40 to end residues) (unknown origin) using alpha-KG as substrate after 120 mins in presence of NADPH by resazurin-based assay
[14] = target: T1, Isocitrate dehydrogenase [NADP] cytoplasmic; assay: Inhibition of IDH1 R132C mutant (unknown origin) assessed as reduction in NADPH consumption by diaphorase/resazurin-based assay
[15] = target: T2, Isocitrate dehydrogenase [NADP] cytoplasmic; assay: Inhibition of IDH1 R132H mutant (unknown origin) assessed as reduction in NADPH consumption by diaphorase/resazurin-based assay
[16] = target: T4, Isocitrate dehydrogenase [NADP], mitochondrial (Homo sapiens, UniProt P48735, R140Q); assay: Inhibition of IDH2 R140Q mutant (unknown origin) using alpha-KG as substrate after 60 mins in presence of NADPH by resazurin-based assay
T4 sequence (P48735 40-452 R140Q limits assumed): as the sequence (P48735 40-452 R172K limits assumed) above, with R101Q, K133R counted along it

[17] = target: T2, Isocitrate dehydrogenase [NADP] cytoplasmic; assay: Inhibition of IDH1 R132H mutant (unknown origin) assessed as reduction in NADPH consumption using alpha-KG as substrate by luminescence based assay
[18] = target: T3, Isocitrate dehydrogenase [NADP], mitochondrial; assay: Inhibition of IDH2 R172K mutant (unknown origin) using alpha-KG as substrate after 60 mins in presence of NADPH by resazurin-based assay
[19] = target: T4, Isocitrate dehydrogenase [NADP], mitochondrial; assay: Inhibition of IDH2 R140Q mutant in human U87MG cells assessed as reduction in 2-HG levels after 48 hrs […]; format: cell-based

T1 sequence (O75874 2-414 R132C limits assumed): as the sequence (O75874 2-414 R132H limits assumed) above, with H131C counted along it

`Cn1nccc1-c1cc2c(cc1F)Nc1ncc(F)cc1CN2C(=O)C1CCN(CC(F)(F)F)CC1` showed a pIC50 [1] of 8.46.
`Cc1cc([C@@H](C)Nc2nc(N3C(=O)OC[C@@H]3C(C)C)c3cc[nH]c3n2)ncc1-c1ccnc(C(F)(F)F)c1` gave a pIC50 [2] of 8.70 and a pIC50 [3] of 8.22.
For `CC(C)[C@H]1CNC(=O)N1c1ccnc(NC2(c3cn(-c4ccc(Cl)cc4)cn3)CC2)n1`, the pIC50 [4] was over 7.00.
`C=CC(=O)N1CC(OCc2ccc([C@H](C)Nc3ncc4c(n3)N(CC(C)C)C(=O)OC4)cc2)C1` was tested, and the pIC50 [5] was over 7.00 and the pIC50 [6] was over 7.00.
`CC(C)[C@H]1COC(=O)N1c1ccnc(NC2(c3cn(-c4ccc(Cl)cc4)cn3)CC2)n1` gave a pIC50 [4] of over 7.00.
`COc1cc2[nH]c(=O)c([C@H](C)Nc3ncc(C#N)c(OC)n3)cc2cc1Cl` was tested, and the pIC50 [7] was over 8.00 and the pIC50 [8] was over 8.00.
`C[C@H](Nc1ncc(F)c(N2C(=O)[C@@H]3CC[C@H]2C3)n1)c1nc(-c2ccc(Cl)cc2)no1` was tested, and the pIC50 [9] was over 7.00 and the pIC50 [10] was over 7.00.
`C[C@H](Nc1nccc(N2C(=O)C[C@@H](O)[C@H]2Cc2ccccc2)n1)c1cn(-c2ccc(Cl)cc2)cn1` showed a pIC50 [9] of over 7.00 and a pIC50 [10] of over 7.00.
For `CCc1ccc(Cl)cc1-n1c(C=C(C)C)c(C(=O)N2CCNCC2)cc(-c2nc(-c3ccc(Cl)cc3)cs2)c1=O`, the pIC50 [11] was over 6.52 and the pIC50 [12] was over 6.52.
Molecule `FC(F)(F)c1cc(Nc2nc(NOCC3CC3)nc(-c3cccc(C(F)(F)F)n3)n2)ccn1` has a pIC50 [13] of over 7.30.
`C[C@H](O)[C@@H]1COC(=O)N1c1nc(N[C@H](C)c2cn(-c3ccc(F)cc3)cn2)nc2ccsc12` was tested, and the pIC50 [2] was 7.55.
With `O=C(C1CCN(CC(F)(F)F)CC1)N1Cc2cc(F)cnc2Nc2cc(F)c(N3CC4(CCCOC4)C3)cc21` the pIC50 [1] was over 8.00.
For `COCCO[C@H]1CC(C(=O)OC)[C@H](C(=O)N(c2cccc(F)c2)[C@H](C(=O)NC2CC(F)(F)C2)c2ccccc2Cl)C1` (stereo not given in full), the pIC50 [14] was over 7.00 and the pIC50 [15] was over 7.00.
With `[2H]C([2H])([2H])C([2H])(C([2H])([2H])[2H])C([2H])([2H])Nc1nc(Nc2ccnc(C(F)(F)F)c2)nc(-c2cccc(C(F)(F)F)n2)n1` the pIC50 [16] was 6.44.
Molecule `COc1cc2c(cc1CCC(=O)O)nc(Nc1ccc(OC(F)(F)F)cc1)n2[C@@H]1C[C@H](C)CC(C)(C)C1` has a pIC50 [17] of over 8.00.
In the case of `COc1cc(N[C@@H](C)c2cc3cc(Cl)c(OCc4ccccn4)cc3[nH]c2=O)ccc1C#N`, the pIC50 [7] was over 8.00 and the pIC50 [8] was over 8.00.
With `CNS(=O)(=O)c1cccc(NC(=O)c2nn(Cc3ccccc3)c(=O)c3ccccc23)c1` the pIC50 [7] was 7.30 and the pIC50 [8] was 6.23.
`C[C@H](Nc1nc(N2C(=O)OC[C@@H]2[C@H](C)F)c2cc[nH]c2n1)c1cn(-c2ccc(Cl)cc2)cn1` gave a pIC50 [2] of 8.70 and a pIC50 [3] of 8.22.
`c1ccc(Nc2nc(NC3CC3)nc(-c3ccccc3)n2)cc1` showed a pIC50 [18] of at least 7.00, a pIC50 [19] of at least 7.00 and a pIC50 [16] of at least 7.00.
Molecule `C[C@@H](Nc1nc(N2C(=O)OC[C@@H]2c2ccccc2)c2cn[nH]c2n1)c1cn(-c2ccc(Cl)cc2)cn1` has a pIC50 [2] of 7.55.
In the case of `O=C(NC1CC(F)(F)C1)[C@@H](c1ccccc1Cl)N(C(=O)[C@H](CO)Nc1ncccn1)c1cccc(F)c1`, the pIC50 [14] was over 7.00 and the pIC50 [15] was over 7.00.
`C[C@H](Nc1nccc(N2C(=O)CCC2(C)C)n1)c1cn(-c2ccc(Cl)cc2)cn1` gave a pIC50 [9] of over 7.00 and a pIC50 [10] of over 7.00.
For `COc1cc(N[C@@H](C)c2cc3cc(Cl)ccc3[nH]c2=O)ccc1C#N`, the pIC50 [7] was over 8.00 and the pIC50 [8] was over 8.00.
Molecule `COc1cc(N[C@@H](C)c2cc3cc(Cl)c(OCCn4ccnc4C)cc3[nH]c2=O)ccc1C#N` has a pIC50 [7] of over 8.00 and a pIC50 [8] of over 8.00.
